Assay [1] addresses T1, human KEAP1 (N-term, residues 321-609) (Homo sapiens, UniProt Q14145).
T1 construct: human KEAP1 (N-term, residues 321-609) enzyme
Kind of assay: KEAP1 Kelch Fluorescence Polarization (FP) Assay. Conditions: inhibition of Kelch domain-NRF2 interaction; 2 nM FITC-labelled NRF2 peptide, 25 nM KEAP1, 1 h at room temperature; compounds below 10 nM cannot be differentiated. It is filed as binding. The protocol: Inhibition of the Kelch domain-NRF2 interaction was determined using a fluorescence polarization-based competition assay in a black 384-well microplate. Compounds were tested at a starting concentration of 10 μM serially diluted 1:3 to generate a 12-point dose response curve on the Biomek FX robot. Each well contained 2 nM FITC-labelled NRF2 peptide (FITC-LDEETGEFL-NH2) and 25 nM human KEAP1 (N-term, residues 321-609) enzyme in a final volume of 20 μL of assay buffer (50 mM Tris-HCl pH 8.0, 100 mM NaCl, 5 mM MgCl2, 0.005% Tween-20, 0.005% BSA, 0.5% DMSO) in the presence of varying concentrations of test compound. Unlabelled peptide (LDEETGEFL-NH2) at 50 μM (negative control) and 0.5% DMSO (positive control) was used to determine the assay window.
After 1 h at room temperature, fluorescence polarization (excitation 470 nm/emission 530 nm) was measured using an Envision plate reader. IC50 values were determined by fitting the data to a four parameter logistic fit using XLfit or XE Runner within ActivityBase. The assay limit is such that compounds below 10 nM cannot be differentiated.
Background: Fluorescence polarisation rises when a labelled molecule tumbles more slowly, as on binding a larger partner.

Assay [2] relates to NRF2 mediated gene NAD(P)H:quinone acceptor oxidoreductase 1 (NQO1) in BEAS-2B cells. Briefly: Beas2B NQO1 mRNA Cell Based Assay. The settings on record: Homo sapiens, NQO1 mRNA increase compared to vehicle (0.1% DMSO), 24 h. The procedure: The up regulation of the NRF2 mediated gene NAD(P)H:quinone acceptor oxidoreductase 1 (NQO1) was measured using the following assay method: BEAS-2B cells (ATCC CRL-9609) were plated in 96-well clear plates at 20,000 cells/well in 75 μL of cell culture media and incubated overnight (37° C., 5% CO2). On day 2, 25 μL of compound or controls were added to the cells for 24 h. On day 3, the medium was aspirated from the plate and the Cells-to-CT™ 1-Step TaqMan® Kit (Ambion A25603) was used to perform expression analysis directly from cultured cells without RNA purification according to the manufacturer's instructions.
Briefly, cells were washed with ice cold PBS and 22.5 μL of room-temperature DNase/Lysis solution was added to the cells and incubated at room temperature for 5 minutes. To stop the reaction, 2.25 μL of stop solution was added to the cell lysate. The samples were diluted 1:5 using nuclease free water and 2.5 μL transferred into the PCR plate. Real-time PCR was performed using the C-1000 Thermal Cycler (Bio-Rad) using human beta actin as the internal control. The cDNA was amplified with a specific primer for NQO1 using the 1-step RT-PCR master mix (Ambion Cells-to-CT™ 1-Step TaqMan® Kit A25603). The primers/probes sets that were used for amplification of cDNA were obtained from TaqMan Gene Expression Assays (Applied Biosystems). The comparative CT (ΔΔCT) relative quantification method was used to calculate the relative mRNA level of the target gene NQO1 as described in the Applied Biosystems Chemistry Guide. The data are expressed as an increase in target gene mRNA compared to vehicle (0.1% DMSO) control and the EC50 values were determined by fitting the data to a four parameter logistic fit using XLfit or XE Runner within ActivityBase.

IC50 and EC50 data for six compounds are collected here from US20230167084A1, “TETRAHYDROISOQUINOLINE COMPOUNDS AS NRF2 ACTIVATORS” (C4X Discovery Limited, priority 2020, published 2023).

T1 sequence (Q14145 321-609): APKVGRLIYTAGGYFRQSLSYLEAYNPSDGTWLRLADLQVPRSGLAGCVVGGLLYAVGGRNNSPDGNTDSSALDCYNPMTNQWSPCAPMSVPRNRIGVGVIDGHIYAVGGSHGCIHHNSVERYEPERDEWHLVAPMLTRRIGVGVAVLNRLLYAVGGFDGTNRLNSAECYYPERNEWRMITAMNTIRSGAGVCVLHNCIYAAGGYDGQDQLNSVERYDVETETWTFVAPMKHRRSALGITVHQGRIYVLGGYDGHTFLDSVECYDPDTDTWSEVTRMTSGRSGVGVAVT

Broadly, the IC50 is the midpoint of a concentration-inhibition curve. The term EC50 denotes the concentration giving half of the maximal effect. A lower EC50 goes with a more potent agent. `Cn1nnc(COc2c(F)cc(Cl)c3c2[C@@H](CN2CC4(CC4)CC2=O)N(C(=O)[C@@H]2CCCC[C@]2(C)c2nnn[nH]2)CC3)c1C(F)F` [Example 1, 5-(((S)-5-chloro-8-((5-(difluoromethyl)-1-methyl-1H-1,2,3-triazol-4-yl)methoxy)-7-fluoro-2-((1R,2S)-2-methyl-2-(1H-tetrazol-5-yl)cyclohexane-1-carbonyl)-1,2,3,4-tetrahydroisoquinolin-1-yl)methyl)-5-azaspiro[2.4]heptan-6-one] had an IC50 in assay [1] of 4.8 nM. The same compound registered an EC50 in assay [2] of 6.8 nM.
In the same order, the values of `Cn1nnc(COc2c(F)cc(Cl)c3c2[C@@H](CN2CCOCC2=O)N(C(=O)[C@@H]2CCCC[C@]2(C)C(=O)O)CC3)c1C(F)F` [Example 2, (1S,2R)-2-((S)-5-chloro-8-((5-(difluoromethyl)-1-methyl-1H-1,2,3-triazol-4-yl)methoxy)-7-fluoro-1-((3-oxomorpholino)methyl)-1,2,3,4-tetrahydroisoquinoline-2-carbonyl)-1-methylcyclohexane-1-carboxylic acid] are 5.4 nM and 1.3 nM.
In assay [1], `C[C@@H]1CC(=O)N(C[C@@H]2c3c(c(Cl)cc(F)c3OCc3nnn(C)c3C(F)F)CCN2C(=O)[C@@H]2CCCC[C@]2(C)C(=O)O)C1` [Example 3, (1S,2R)-2-((S)-5-chloro-8-((5-(difluoromethyl)-1-methyl-1H-1,2,3-triazol-4-yl)methoxy)-7-fluoro-1-(((R)-4-methyl-2-oxopyrrolidin-1-yl)methyl)-1,2,3,4-tetrahydroisoquinoline-2-carbonyl)-1-methylcyclohexane-1-carboxylic acid] gave a half-maximal inhibitory concentration (IC50) of 4.4 nM. Moreover, in assay [2], the EC50 stood at 2.1 nM.
In turn, `C[C@]1(C(=O)O)CCC[C@H]1C(=O)N1CCc2c(Cl)cc(F)c(OCc3nnn4c3CCCC4)c2[C@H]1CN1CC2(CC2)CC1=O` [Example 4, (1S,2R)-2-((S)-5-chloro-7-fluoro-1-((6-oxo-5-azaspiro[2.4]heptan-5-yl)methyl)-8-((4,5,6,7-tetrahydro-[1,2,3]triazolo[1,5-a]pyridin-3-yl)methoxy)-1,2,3,4-tetrahydroisoquinoline-2-carbonyl)-1-methylcyclopentane-1-carboxylic acid] came in with an IC50 in assay [1] of 5 nM. Also, the response in assay [2] was half-maximal at 0.3 nM (EC50).
In the same order, the values of `Cc1nnc(COc2c(F)cc(Cl)c3c2[C@@H](CN2CC4(CC4)CC2=O)N(C(=O)[C@@H]2CCCC[C@]2(C)C(=O)O)CC3)n1C` [Example 5, (1S,2R)-2-((S)-5-chloro-8-((4,5-dimethyl-4H-1,2,4-triazol-3-yl)methoxy)-7-fluoro-1-((6-oxo-5-azaspiro[2.4]heptan-5-yl)methyl)-1,2,3,4-tetrahydroisoquinoline-2-carbonyl)-1-methylcyclohexane-1-carboxylic acid] are 4.9 nM and 0.5 nM.
`Cn1cc(COc2c(F)cc(Cl)c3c2[C@@H](CN2CC4(CC4)CC2=O)N(C(=O)[C@@H]2CCCC[C@]2(C)C(=O)O)CC3)nn1` [Example 6, (1S,2R)-2-((S)-5-chloro-7-fluoro-8-((1-methyl-1H-1,2,3-triazol-4-yl)methoxy)-1-((6-oxo-5-azaspiro[2.4]heptan-5-yl)methyl)-1,2,3,4-tetrahydroisoquinoline-2-carbonyl)-1-methylcyclohexane-1-carboxylic acid] had an IC50 in assay [1] of 5 nM. The EC50 in assay [2] was found to be 1 nM.
